These results are taken from ChEMBL document CHEMBL5625216, “Design, synthesis, and biological evaluation of 3, 5-disubsituted-1H-pyrazolo[3,4-b]pyridines as multiacting inhibitors against microtubule and kinases” (Eur J Med Chem, 2023).

For orientation: Cmax means the highest concentration seen after dosing. As a reminder, the Tmax is the time from dosing to the highest level. The half-life is the time needed for the level to fall by half in the phase considered. Read a low half-life as rapid decline. Usually clearance stands for the volume of plasma or blood freed of the substance per unit of time. Lower therefore signals inefficient removal. Broadly, the Vd is a proportionality between amount in the body and measured concentration, not a real space. Broadly, the AUC(0-t) is exposure summed from dosing to a finite time, without extrapolation to infinity. In general, bioavailability refers to dose-corrected exposure relative to a reference, in per cent. Low values mean poor availability, high ones good availability.

A short description of data set [1]: in vivo. Particulars: ICR, mouse, iv, 5 mg/kg.
Data set [2] in a line: in vivo. Particulars: ICR, mouse, po, 15 mg/kg.
Data set [3] is described as follows: in vivo. The conditions noted are these: ICR, mouse, po, 15 mg/kg. The source holds these as a separate data set.
Data set [4] can be described thus: in vivo. Particulars: ICR, mouse, iv, 5 mg/kg. The source holds these as a separate data set.
Data set [5] can be described thus: in vivo. The conditions noted are these: ICR, mouse, iv, 5 mg/kg. The source holds these as a separate data set.
Data set [6] can be described thus: in vivo. Particulars: ICR, mouse, iv, 5 mg/kg. This is another data set of the same source.
Data set [7] can be described thus: in vivo. The conditions noted are these: ICR, mouse, iv, 5 mg/kg. The source holds these as a separate data set.
A short description of data set [8]: in vivo. The conditions noted are these: ICR, mouse, po, 15 mg/kg. The source holds these as a separate data set.
Data set [9] can be described thus: in vivo. The conditions noted are these: ICR, mouse, po, 15 mg/kg. The source holds these as a separate data set.
A short description of data set [10]: in vivo. Particulars: ICR, mouse, po, 15 mg/kg. This is another data set of the same source.
Data set [11] in a line: in vivo. Particulars: ICR, mouse, iv, 5 mg/kg. The source holds these as a separate data set.

With `COc1cc(-c2n[nH]c3ncc(-c4ccc(C)c(NCCO)c4)cc23)cc(OC)c1OC`, the Cmax at 24 h in data set [1] stood at 3850 ng/mL; in data set [8], 115 ng/mL. Also, the time to peak (Tmax) at 24 h stood at 18 min in [2] and 6 min in [4]. Besides, the half-life at 24 h in [3] was 72 min; in data set [11] it was 78 min. Moreover, the clearance at 24 h in data set [5] is 73.3 mL/min/kg. This compound returned a Vd at 24 h in [6] of 1.3 L/kg. Besides, the AUC(0-t) at 24 h in data set [7] is 1150 ng·h/mL; in data set [9] it was 110 ng·h/mL. The same compound registered a bioavailability at 24 h in data set [10] of 3.2%.
